In article PMC12210405, “Identification of chemical scaffolds for targeting ubiquitin-specific protease 11 (USP11) through high-throughput virtual screening” (Journal of Enzyme Inhibition and Medicinal Chemistry, 2025):
pIC50, pKd: −log10 of the molar value.

Key:
GST-USP11 [1] = target: T1, GST-USP11 (Homo sapiens, UniProt P51784); assay: Fluorescence-based deubiquitinating enzyme activity assay (Ub-AMC fluorogenic substrate); type: biochemical; conditions: for inhibition at 25 µM: read-out: Percent inhibition of USP11
T1 construct: The plasmids containing the intact USP11 gene were introduced into E. coli BL21-CodonPlus (DE3); made in house; host or cells: E. coli BL21-CodonPlus (DE3)
T1 sequence (P51784 whole entry): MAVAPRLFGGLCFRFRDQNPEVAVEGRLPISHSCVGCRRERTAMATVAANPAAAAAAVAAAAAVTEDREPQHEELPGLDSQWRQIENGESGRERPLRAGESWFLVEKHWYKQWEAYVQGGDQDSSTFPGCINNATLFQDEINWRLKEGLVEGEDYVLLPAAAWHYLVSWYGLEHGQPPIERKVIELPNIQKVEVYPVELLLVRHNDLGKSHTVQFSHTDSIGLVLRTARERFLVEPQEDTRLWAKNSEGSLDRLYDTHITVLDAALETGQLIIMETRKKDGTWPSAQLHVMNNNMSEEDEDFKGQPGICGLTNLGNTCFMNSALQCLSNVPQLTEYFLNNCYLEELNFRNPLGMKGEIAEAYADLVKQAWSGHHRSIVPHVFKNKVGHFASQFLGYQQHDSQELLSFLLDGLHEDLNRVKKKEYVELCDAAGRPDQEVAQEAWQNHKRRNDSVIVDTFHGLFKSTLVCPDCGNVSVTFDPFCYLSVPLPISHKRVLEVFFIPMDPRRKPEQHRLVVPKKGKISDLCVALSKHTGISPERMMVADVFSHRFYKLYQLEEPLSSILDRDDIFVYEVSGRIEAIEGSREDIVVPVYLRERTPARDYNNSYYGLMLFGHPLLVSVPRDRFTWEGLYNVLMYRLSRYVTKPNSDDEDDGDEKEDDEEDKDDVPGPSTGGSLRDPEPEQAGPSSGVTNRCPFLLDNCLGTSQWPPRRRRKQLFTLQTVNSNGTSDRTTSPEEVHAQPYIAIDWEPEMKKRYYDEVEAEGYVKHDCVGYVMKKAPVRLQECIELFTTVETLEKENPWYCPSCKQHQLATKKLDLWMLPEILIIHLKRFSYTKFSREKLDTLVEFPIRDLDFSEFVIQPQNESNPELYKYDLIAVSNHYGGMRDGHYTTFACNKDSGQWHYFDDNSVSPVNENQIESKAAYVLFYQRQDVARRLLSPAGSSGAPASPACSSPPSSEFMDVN
Source text: The deubiquitinating enzyme (DUB) activity of USP11 was monitored using Ubiquitin AMC (Ub-AMC) (#U-550–050, R&D Systems, Minneapolis, MN, USA) as a fluorogenic substrate. […] USP11 DUB activity of vehicle control or each compound group was quantified by calculating the area under curve (AUC) using Prism 9 software (GraphPad, Boston, MA, USA).
Using a -fluorogenic substrate assay with ubiquitin 7-amido-4-methylcoumarin (Ub-AMC), we tested varying concentrations of both the protein and the substrate. […] Hits were defined as compounds that inhibited enzyme activity by more than 40%, as determined by fluorescence intensity at the 90-min endpoint.

USP15 = conditions: cited from earlier work
GST-USP11 [2] = target: T1, GST-USP11; assay: Biolayer interferometry (BLI) assay; type: binding
Experimental: The binding affinities of tested compounds for USP11 were determined using BRAND® microplates (#BR781608, Merck, Darmstadt, Germany) and an Octet® R8 system (Sartorius AG, Göttingen, Germany). Octet GST Biosensors (#18–5096, Sartorius AG, Göttingen, Germany) captured with purified GST-USP11 (50 μg/ml) or without proteins were used as ligand sensors or reference sensors, respectively. For binding kinetic measurements, the association and dissociation of tested compounds (3.125–100 μM) in assay buffer (PBS, 0.02% Tween 20, 2% DMSO) were monitored at 25 °C with 1,000 rpm stirring for 90 s. For accurate baseline, wells containing assay buffer only were used as reference wells. All data were analysed by Octet BLI analysis software version 12.2 (Sartorius AG, Göttingen, Germany). The binding graphs were obtained using a double reference subtraction protocol and equilibrium dissociation constant (KD) values were calculated from the ratio of the dissociation rate constant (Kdis) to the association rate constant (Kon).

[3] = compound 25 µM, 90-min endpoint, Ub-AMC

inhibition at 25 µM (GST-USP11 [1]; [3]) [%]	Compound	further results
27.9	O=[N+]([O-])c1c(N2CCCCC2)cc(N2CCCCC2)c2nonc12 [Compound 18d]	
7.89	N#CC1CCCN1C(=O)CNCCN1CCN(c2ccc([N+](=O)[O-])c3nonc23)CC1 (centres unmarked) [Compound 18h]	
41.5	O=C(CCc1ccc(F)cc1)N/N=C/c1ccc(O)c(O)c1O [Compound 29]	
43.9	CCCCOc1cc(CN2CCN(c3ccc(NC(=N)c4ccc[nH]4)cc3)CC2)cc(OCCCC)c1O [Compound 73]	
90.3	CCCCCOc1cc(CN2CCN(c3ccc(NC(=N)c4ccc[nH]4)cc3)CC2)cc(OCCCCC)c1O [Compound 73a]	pIC50 (GST-USP11 [1]; USP11, Figure S6): 4.76
38.1	CCOc1cc(CN2CCN(c3ccc(NC(=N)c4ccc[nH]4)cc3)CC2)cc(OCC)c1O [Compound 73b]	
76.8	CCOc1cc(/C=C/C(=O)N2CCN(c3ccc(NC(=N)c4ccc[nH]4)cc3)CC2)cc(OCC)c1O [Compound 73c]	
23	CCCCCOc1cc(CN2CCN(c3ccc(NC(=N)c4cccs4)cc3)CC2)cc(OCCCCC)c1O [Compound 73d]	
23	CCCCOc1cc(CN2CCN(c3ccc(NC(=N)c4cccs4)cc3)CC2)cc(OCCCC)c1O [Compound 73e]	
89.9	CCCCOc1cc(/C=C/C(=O)N2CCN(c3ccc(NC(=N)c4ccc[nH]4)cc3)CC2)cc(OCCCC)c1O [Compound 73f]	pIC50 (GST-USP11 [1]; USP11, Figure S6): 4.71
58.4	NCCNc1ccc(NCCN)c2c1C(=O)c1ccncc1C2=O [Compound 74a]	
38.1	Nc1ccc(O)c2c1C(=O)c1c(cccc1[N+](=O)[O-])C2=O [Compound 74c]	
0	CCOC(=O)CCNc1ccc(Nc2ccc(C)cc2)c2c1C(=O)c1ccccc1C2=O [Compound 74d]	
16.8	CN(c1ccc(C=O)cc1)c1cccc2c1C(=O)c1ccccc1C2=O [Compound 74e]	
7.38	Nc1ccc(NC(=O)c2ccccc2)c2c1C(=O)c1ccccc1C2=O [Compound 74f]	
6.51	O=C1c2ccccc2C(=O)c2c1cc(N1CCOCC1)cc2N1CCCCC1 [Compound 74g]	
	O=C1c2c(O)ccc(O)c2C(=O)c2c(NCCNCCO)ccc(NCCNCCO)c21 [Mitoxantrone, mitoxantrone]	USP15 inhibition in words (USP15): also inhibits USP15
	CC(C)[C@@H](CC[C@@H](C)[C@H]1CC[C@H]2[C@@H]3[C@H](O)C[C@H]4C[C@@H](NCCCNCCCCN)CC[C@]4(C)[C@H]3CC[C@]12C)OS(=O)(=O)O [Squalamine, squalamine]	Percent inhibition of USP11 (GST-USP11 [1]; [3]): completely inhibits; pIC50 (GST-USP11 [1]; recombinant USP11): 5.08; pKd (GST-USP11 [2]): 3.34; kon (GST-USP11 [2]; Figure 3c): 1380 M⁻¹ s⁻¹; koff (GST-USP11 [2]; Figure 3c, read-out: Kdis): 0.634 s⁻¹

Compound	inhibition at 25 µM (GST-USP11 [1]; [3]) [%]	further results
N#CC1CCCN1C(=O)CNC1CCCN(c2ccc([N+](=O)[O-])c3nonc23)C1 (centres unmarked) [Compound 18]	55.8	
O=[N+]([O-])c1ccc(N2CCCC2)c2nonc12 [Compound 18a]	15	
O=[N+]([O-])c1ccc(N2CCCCC2)c2nonc12 [Compound 18b]	3.3	
O=[N+]([O-])c1ccc(N2CCCCCC2)c2nonc12 [Compound 18c]	36.9	
NC1CCC(Nc2ccc([N+](=O)[O-])c3nonc23)CC1 (centres unmarked) [Compound 18e]	64.8	
N#CC1CCCN1C(=O)CNC1CCC(Nc2ccc([N+](=O)[O-])c3nonc23)CC1 (centres unmarked) [Compound 18f]	23.8	
N#CC1CC=NN1C(=O)CNC1CCC(Nc2ccc([N+](=O)[O-])c3nonc23)CC1 (centres unmarked) [Compound 18g]	70.9	
CC(CO)C1CCC2C3C(CCC12C)C1(C)CCC(NCCCCN)C[C@@H]1C[C@H]3O (some centres unmarked) [Compound 57]	44.8	
